For assay [1], the system named is human SMN1 minigene full length and Δ7 mRNA (SMN1-A). Kind of assay: Human SMN1 minigene mRNA end-point semi-quantitative RT-PCR splicing assay in cultured cells. The settings on record: HEK293H cells transfected with SMN1-A minigene, increasing concentrations, 7 hours, agarose gel (FIG. 10). Format: cell-based. From the text:
The RT-PCR assay is used to visualize and quantify the levels of the human SMN1 minigene full length and Δ7 mRNA in primary cells and cell lines expressing the human SMN1 minigene construct treated with a test compound.
Using the procedure for the preparation of the SMN2 minigene construct described in Biological Example 1, the SMN1 version of the minigene is generated by replacing the sixth nucleotide of exon 7 (a thymine residue) of the SMN2-A minigene construct to cytosine using site-directed mutagenesis. Thus, similar to the SMN2-A minigene construct, the SMN1 minigene construct has a single adenine residue inserted after nucleic residue 48 of exon 7. The SMN1 minigene construct is referred to as SMN1-A.
HEK293H cells (10,000 cells/well/199 μL) were transfected, using FuGENE-6 reagent, in a 96-well plate with 15 ng of the SMN1-A minigene reporter plasmid per well. Cells were incubated for 24 hours following transfection. Test compounds were serially diluted 3.16-fold in 100% DMSO to generate a 7-point concentration curve. A solution of test compound (1 μL, 200× in DMSO) was added to each test well. 1 μL DMSO was added to each control well. The plate was incubated for 7 hours in a cell culture incubator (37° C., 5% CO2, 100% relative humidity). The cells were then lysed in Cells-To-Ct lysis buffer and the lysates were stored at −80° C.
Two SMN spliced mRNA are generated from the SMN1 minigene. The term “SMN1 minigene FL” refers to the first spliced product containing exon 7, corresponding to full length SMN1 mRNA. The term “SMN1 minigene A7” refers to the second product lacking exon 7.
SMN1 minigene FL and SMN1 minigene Δ7 mRNA are amplified using the primers in Table 11. Primer SMN Forward C (SEQ ID NO. 11) hybridizes to a nucleotide sequence in exon 6 (nucleotide 43 to nucleotide 63), primer SMN Reverse A (SEQ ID NO. 2) hybridizes to a nucleotide sequence in the coding sequence of Firefly luciferase. The combination of these two oligonucleotides detects only SMN1 or SMN2 minigenes (RT-PCR) and will not detect endogenous SMN1 or SMN2 genes. Since the HEK293H cells used in Example 16 were transfected with only the human SMN1 minigene, RT-PCR can visualize and quantify only SMN1 minigene FL and SMN1 minigene Δ7 mRNA.
(§1) To synthesize cDNA, 5 μL of lysate, 4 μL of 5× iScript reaction mix, 1 μL of reverse transcriptase, and 10 μL of water are combined and incubated 5 min at 25° C. followed by 30 min at 42° C., followed by 5 min at 85° C. The cDNA solution is stored at −20° C.
To perform endpoint PCR, 5 μL of cDNA, 0.2 μL of 100 μM forward primer, 0.2 μL of 100 μM reverse primer, and 22.5 μL of polymerase super mix are combined in a 96 well semiskirted PCR plate. PCR is carried out at the following temperatures for the indicated time: Step 1: 94° C. (2 min), Step 2: 94° C. […]

Assay [2] has as its system SMN2 full length and Δ7 mRNA. Kind of assay: Endogenous SMN2 mRNA end-point semi-quantitative RT-PCR splicing assay in cultured cells (GM03813). Format: cell-based, human. The settings on record: Type 1 SMA patient fibroblasts GM03813, increasing concentrations, 24 hr, agarose gel (FIG. 5). As for the experimental part:
The endpoint reverse transcription-PCR splicing assay is used to visualize and quantify the levels of the SMN2 full length and Δ7 mRNA in primary cells and cell lines containing the SMN2 gene treated with a test compound.
GM03813 SMA patient cells (5,000 cells/well) are seeded in 200 μL of cell culture medium (DMEM plus 10% FBS) in 96-well flat-bottom plates and the plate is immediately swirled to ensure proper dispersal of cells, forming an even monolayer of cells. Cells are allowed to attach for at least 4-6 hrs. Test compounds are serially diluted 3.16-fold in 100% DMSO to generate a 7-point concentration curve. A solution of test compound (1 μL, 200× in DMSO) is added to each test well and 1 μL DMSO is added to each control well. The plate is incubated for 24 hrs in a cell culture incubator (37° C., 5% CO2, 100% relative humidity). The cells are then lysed in Cells-To-Ct lysis buffer and the lysate is stored at 80° C.
SMN FL and Δ7 mRNA are identified using the following primers in Table 6. These primers hybridize to a nucleotide sequence in exon 6 (SMN Forward C, SEQ ID NO. 11) (nucleotide 43 to nucleotide 63) and exon 8 (SMN Reverse C, SEQ ID NO. 12) (nucleotide 51 to nucleotide 73) common to human SMN1 and SMN2 mRNA. Since the SMA patient cells used in Example 4 contain only the SMN2 gene, RT-PCR can visualize and quantify only SMN2 full-length and SMN2 Δ7 mRNA.
as §1
To perform endpoint PCR, 5 μL of cDNA, 0.2 μL of 100 μM forward primer, 0.2 μL of 100 μM reverse primer, and 22.5 μL of polymerase super mix are combined in a 96 well semiskirted PCR plate. PCR is carried out at the following temperatures for the indicated time: Step 1: 94° C. (2 min), Step 2: 94° C. (30 sec), Step 3: 55° C. (30 sec), Step 4: 68° C. (1 min), then repeat Steps 2 to 4 for a total of 33 cycles, then hold at 4° C.
10 μL of each PCR sample is electrophoretically separated on a 2% agarose E-gel for 14 minutes stained with double-stranded DNA (dsDNA) staining reagents (e.g., ethidium bromide) and visualized using a gel imager.

Structures are written as SMILES.

On to `Cc1ccc2nc(-c3cc4ccc(N5CCN(C)CC5)nc4oc3=O)cn2c1` [Cpd 27, 3-(6-methylimidazo[1,2-a]pyridin-2-yl)-7-(4-methylpiperazin-1-yl)-2H-pyrano[2,3-b]pyridin-2-one], for which, in assay [1], the “SMN1 minigene FL mRNA (gel band)” value is given as “progressively more SMN1 minigene FL mRNA” and the “SMN1 minigene Δ7 mRNA (gel band)” value is “less SMN1 minigene Δ7 mRNA”. Besides, in assay [2], the “SMN2 FL mRNA (gel band)” value is “progressively more SMN2 FL mRNA” and the “SMN2 Δ7 mRNA (gel band)” value is listed as “less SMN2 Δ7 mRNA”.

Turning to `CN1CCN(c2ccc3cc(-c4nc5c(Cl)cccc5s4)c(=O)oc3n2)CC1` [Cpd 5, 3-(4-chloro-1,3-benzothiazol-2-yl)-7-(4-methylpiperazin-1-yl)-2H-pyrano[2,3-b]pyridin-2-one], in assay [1], the “SMN1 minigene FL mRNA (gel band)” value was “progressively more SMN1 minigene FL mRNA” and the “SMN1 minigene Δ7 mRNA (gel band)” value was “less SMN1 minigene Δ7 mRNA”. In addition, in assay [2], the “SMN2 FL mRNA (gel band)” value is reported as “progressively more SMN2 FL mRNA” and the “SMN2 Δ7 mRNA (gel band)” value is reported as “less SMN2 Δ7 mRNA”.
